Key:
Assay in all cases: relative viability (nuclei count vs DMSO), 5 days (fraction); higher = more cells survive
Doramapimod + Dasatinib = compound: Cc1ccc(-n2nc(C(C)(C)C)cc2NC(=O)Nc2ccc(OCCN3CCOCC3)c3ccccc23)cc1 [Doramapimod] + Cc1nc(Nc2ncc(C(=O)Nc3c(C)cccc3Cl)s2)cc(N2CCN(CCO)CC2)n1 [Dasatinib] (partner 0.075 µM)
Procedure, shortened: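 One day after seeding in 1536-well plates, lung cancer cell lines were dosed by pin tool. Dosing was either single-drug or a fixed anchor-drug dose plus five library-drug doses (not always all listed) in √10 steps. After 5 days, nuclei were stained in one fix-and-stain step and counted on 4× images, and relative viability is the nuclei count of treated wells over that of vehicle wells, given as the median of duplicate plates.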

IPA-3 = compound: C1=CC=C2C(=C1)C=CC(=C2SSC3=C(C=CC4=CC=CC=C43)O)O [IPA-3]
Procedure, shortened: (§1)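 A plate was accepted only when its control CV was below 25% and the cells had doubled at least once. Viability is defined from nuclear counts as treated wells divided by vehicle wells, with the median taken across plates. That median covers lung cancer cell lines grown in 1536-well plates, dosed by pinning at five √10-spaced library-drug concentrations, and counted in MetaXpress from 4× Hoechst images after 5 days.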

RAF265 = compound: Cn1c(Nc2ccc(C(F)(F)F)cc2)nc2cc(Oc3ccnc(-c4ncc(C(F)(F)F)[nH]4)c3)ccc21 [RAF265]
Procedure, shortened: as §1

Doramapimod = compound: Cc1ccc(-n2nc(C(C)(C)C)cc2NC(=O)Nc2ccc(OCCN3CCOCC3)c3ccccc23)cc1 [Doramapimod]
Procedure, shortened: as §1

Row | Cell Line | relative viability (Doramapimod + Dasatinib; first compound 0.02 µM) | relative viability (Doramapimod + Dasatinib; first compound 0.2 µM) | relative viability (Doramapimod + Dasatinib; first compound 0.6325 µM) | relative viability (Doramapimod + Dasatinib; first compound 2 µM) | relative viability (IPA-3; 0.2 µM) | relative viability (IPA-3; 0.6325 µM) | relative viability (IPA-3; 2 µM) | relative viability (IPA-3; 6.325 µM) | relative viability (IPA-3; 20 µM) | relative viability (RAF265; 0.01 µM) | relative viability (RAF265; 0.03162 µM) | relative viability (RAF265; 0.1 µM) | relative viability (RAF265; 0.3162 µM) | relative viability (RAF265; 1 µM) | relative viability (Doramapimod; 0.02 µM) | relative viability (Doramapimod; 0.06325 µM) | relative viability (Doramapimod; 0.2 µM) | relative viability (Doramapimod; 0.6325 µM) | relative viability (Doramapimod; 2 µM) | relative viability (Doramapimod + Dasatinib; first compound 0.06325 µM)
1 | NCI-H2347 | 0.351 | 0.291 | 0.319 | 0.282 | 1.21 | 0.962 | 1 | 1.01 | 1.1 | 1.16 | 0.975 | 0.984 | 0.822 | 0.528 | 1.05 | 0.973 | 1.01 | 0.964 | 0.959 | 
2 | NCI-H2405 | 0.222 | 0.2 | 0.403 | 0.188 | 1.06 | 0.994 | 1.03 | 1.02 | 1.06 | 1.04 | 0.976 | 1 | 0.871 | 0.597 | 1.02 | 1.03 | 0.973 | 1.07 | 0.914 | 0.219
3 | NCI-H3122 | 0.762 | 0.78 | 0.936 | 0.727 | 1.02 | 0.98 | 0.981 | 1.04 | 0.999 | 1.02 | 1.1 | 1.05 | 0.885 | 0.943 | 0.995 | 1 | 0.995 | 0.989 | 1 | 0.779
4 | PC-3 [JPC-3] | 1 | 0.939 | 1.05 | 1.02 | 1.09 | 1.07 | 1.01 | 0.96 | 1 | 1.07 | 1 | 1.12 | 0.488 | 0.743 | 1.15 | 1.11 | 1.1 | 1.13 | 0.904 | 1.04
5 | PC-14 | 0.282 | 0.28 | 0.341 | 0.243 | 1.16 | 0.963 | 0.936 | 0.898 | 1.09 | 1.02 | 0.967 | 1.1 |  | 0.845 | 1.06 | 0.998 | 0.968 | 1.14 | 0.933 | 0.274
6 | RERF-LC-KJ | 0.88 | 0.729 | 0.769 | 0.768 | 1.14 | 0.943 | 0.946 | 0.991 | 1.07 | 1.03 | 0.974 | 0.987 | 0.791 | 0.715 | 1.09 | 1.03 | 1.07 | 1.02 | 0.999 | 0.709
7 | SK-LU-1 | 0.16 | 0.195 | 0.204 | 0.218 | 1.35 | 0.981 | 1.08 | 0.985 | 1.16 | 1.1 | 0.893 | 0.858 | 0.56 | 0.494 | 1.02 | 1.07 | 1.11 | 1.14 | 1.12 | 0.182
8 | SK-MES-1 | 0.374 | 0.413 | 0.41 | 0.33 | 1.08 | 0.97 | 1.07 | 0.923 | 1.02 | 1.03 | 0.805 | 0.634 | 0.441 | 0.283 | 1.01 | 0.934 | 0.95 | 1.05 | 0.926 | 0.406
9 | SW 900 | 0.654 | 0.714 | 0.813 | 0.553 | 1.13 | 0.698 | 0.686 | 0.775 | 0.775 | 1.06 | 0.792 | 0.856 | 0.679 | 0.527 | 0.893 | 1.03 | 0.941 | 0.945 | 0.737 | 0.548
10 | SW 1573 | 0.461 | 0.588 | 0.685 | 0.411 | 1.13 | 0.919 | 1.01 | 0.94 | 0.696 | 1.18 | 0.89 | 0.955 | 0.98 | 0.573 | 0.946 | 0.9 | 0.844 | 0.952 | 0.838 | 0.394

From the supplement of paper PMC10307832
